{"source": "patent US20160166572A1", "about": "“BENEFICIAL EFFECTS OF Lp-PLA2 INHIBITORS IN TREATMENT OF DIABETIC RETINOPATHY AND AGE-RELATED MACULAR DEGENERATION” (Rowan University, priority 2014, published 2016)", "key": {"BBB": {"tested_on": "BBB", "assay": "BBB permeability, IgG binding and Aβ42 deposition in cerebral cortex, animal model of DM and hypercholesterolemia", "format": "in vivo"}, "claudin5 [1]": {"tested_on": "claudin5", "assay": "Claudin5 gene expression in cerebral cortex (RT-PCR, beta-actin reference), DMHC pigs", "format": "in vivo, pig", "settings": "Darapladib 10 mg/kg/d orally, 24 weeks, rank among treatment groups, FIG. 8A", "experimental": "Briefly, after induction of diabetes by a single injection of Streptozotocin, animals were fed a high cholesterol diet. After a month of DMHC induction and acclimation, animals were randomly segregated to untreated DMHC and Darapladib-treated DMHC groups. Darapladib-treated pigs received 10 mg/kg/d of Darapladib orally. Three of the pigs were spared from DMHC induction and served as age-matched, non-DMHC normal controls. Twenty four weeks after acclimation, animals were euthanized and their brains and eyes were immediately removed. Brains were divided anteroposteriorly into anterior, middle and posterior regions. […]\nRelative quantification of claudin5 and occludin gene expression was carried out using the reporter dye SYBR green and Applied Biosystems 7500 real time polymerase chain reaction (RT-PCR) system. […] Relative quantification of the claudin5 and occludin gene expression was conducted using beta actin (β-actin), a house keeping gene, as a standard. The amplification profiles of all samples were analyzed using Applied Biosystems software. […]\nChanges in claudin 5 and occludin gene expression in response to DMHC and Darapladib treatment were assessed in the middle brain region only of the pig cerebral cortex by real-time polymerase chain reaction (RT-PCR) using beta-actin as a reference (FIG. 8)."}, "claudin5 [2]": {"tested_on": "claudin5", "assay": "Claudin5 protein expression in BVECs of cerebral cortex (IHC, MATLAB), DMHC pigs", "format": "in vivo, pig", "settings": "Darapladib 10 mg/kg/d orally, 24 weeks", "experimental": "Briefly, after induction of diabetes by a single injection of Streptozotocin, animals were fed a high cholesterol diet. After a month of DMHC induction and acclimation, animals were randomly segregated to untreated DMHC and Darapladib-treated DMHC groups. Darapladib-treated pigs received 10 mg/kg/d of Darapladib orally. Three of the pigs were spared from DMHC induction and served as age-matched, non-DMHC normal controls. Twenty four weeks after acclimation, animals were euthanized and their brains and eyes were immediately removed. Brains were divided anteroposteriorly into anterior, middle and posterior regions. For each of these brain regions, 2-3 tissue blocks were generated for routine tissue fixation (10% formalin) or freezing and histological processing. The anterior cortical region comprised of anterior 2⁄3 of frontal lobe and anterior 1⁄3 of temporal lobe. The middle cortical region contained mid 1⁄3 of temporal lobe and anterior 1⁄2 of the parietal lobe. The posterior cortex included the posterior 1⁄2 of the parietal lobe, posterior 1⁄3 of the temporal lobe and the occipital lobe. Eyes were dissected longitudinally to sever the retina at the optic nerve. The sections were fixed in 10% formalin and embedded as flattened disc in paraffin. The tissue samples were processed using routine histology techniques. Standard Hematoxylin & Eosin (H&E) staining (FIG. 1) was carried out in retinal sections. Localization of claudin5, occludin and IgG in the cerebral cortex and retina was carried out using immunohistochemistry (IHC) as described previously. Briefly, tissue sections were deparaffinized in xylene and rehydrated in decreasing concentrations of ethanol. The antigenicity of these tissues was enhanced by microwaving in citrate buffer. Sections were treated with 3% H2O2 for 10 minutes to quench endogenous peroxidase activity. Tissues were subsequently treated with their appropriate blocking serum for 30 minutes at room temperature and then probed with anti-claudin5 (Invitrogen, Cat #35-2500, dilution 1:150) or anti-occludin (Invitrogen, Cat #71-1500, dilution 1:800) antibodies for 1 hour at room temperature. Extravasated IgG was detected using biotinylated anti-swine IgG antibody (Vector laboratories, Inc., Catalogue # BA-9020; dilution 1:100). The use of occludin antibody required pre-treatment with a protease (Sigma, Catalogue P-5147; 1.5 mg/ml) for 10 minutes at 37° C. At the end of primary antibody step, all tissue sections were thoroughly rinsed in PBS and then probed with biotin-labeled secondary antibodies [anti-mouse IgG (Vector laboratories, Catalogue # PK-6102; Dilution 1:100) for claudin5 and anti-rabbit IgG (Vector laboratories, Inc., Catalogue # PK-6101; Dilution 1:100) for occludin] for 30 minutes at room temperature. Sections were then rinsed in PBS, treated with avidin-peroxidase complex (Vectastain ABC Elite kit, Vector Laboratories, Inc., Catalogue PK-6100), washed with PBS and visualized with 3-3-diaminobenzidine-4-HCL (DAB)/H2O2 (Imm-PACT-DAB) (Dako, Code K3468). […] Slides were examined and photographed with a Nikon FXA microscope, and digital images were recorded using a Nikon DXM1200F digital camera and analyzed using MATLAB (MathWorks, Mass., USA) and NIS-elements software (Nikon, Melville, N.Y.). […] Claudin5 and occludin protein expression in pig cerebral cortex was evaluated semi-quantitatively using IHC by taking images at five random locations as described previously. Images were analyzed using MATLAB (MathWorks, Mass., USA). […]"}}, "data": [{"smiles": "CCN(CC)CCN(Cc1ccc(-c2ccc(C(F)(F)F)cc2)cc1)C(=O)Cn1c(SCc2ccc(F)cc2)nc(=O)c2c1CCC2", "note": "[Darapladib]", "values": [{"measurement": "Aβ42 deposition in cortical pyramidal neurons", "setting": "BBB", "value": "reverse"}, {"measurement": "BBB permeability", "setting": "BBB", "value": "reverse"}, {"measurement": "IgG binding in cortical pyramidal neurons", "setting": "BBB", "value": "reverse"}, {"measurement": "claudin5 gene expression, middle brain region of cerebral cortex", "setting": "claudin5 [1]", "value": "highest claudin5 and occludin levels"}, {"measurement": "claudin5 protein expression, anterior cortex, versus DMHC group", "setting": "claudin5 [2]; FIG. 7A", "value": "reduction in claudin5 expression compared to the DMHC group, but this difference did not reach statistical significance"}, {"measurement": "claudin5 protein expression, anterior cortex, versus controls", "setting": "claudin5 [2]; FIG. 7A", "value": "significantly higher than in controls"}, {"measurement": "claudin5 protein expression, middle cortex, versus DMHC only", "setting": "claudin5 [2]; FIG. 7B", "value": "approached statistical significance"}, {"measurement": "claudin5 protein expression, middle cortex, versus controls", "setting": "claudin5 [2]; FIG. 7B", "value": "reduced expression of claudin5 to levels not significantly different from controls"}, {"measurement": "claudin5 protein expression, posterior cortex", "setting": "claudin5 [2]; rank among treatment groups, FIG. 7C", "value": "highest expression of claudin5"}]}]}
